# In paper PMC9643865, “Bromo-protopine, a novel protopine derivative, alleviates tau pathology by activating chaperone-mediated autophagy for Alzheimer’s disease therapy” (Frontiers in Molecular Biosciences, 2022):
# Legend:
# 3xTg-AD mice [1] = experiment: Brain immunoblotting (sarkosyl tau fractions, chaperones, LAMP2A) and IHC; type: in vivo
# Experimental: (§1) Female homozygous 3xTg-AD mice carrying transgenes for APP (Swedish KM670/671Nl), MAPT (tauP301L) and Psen1 (M146V) were procured from Jackson’s Laboratory (# 004807). The transgenic mice colonies were bred and maintained in the HKBU animal house at 23 ± 2 °C, 60 ± 15% relative humidity with regular access to food and water. Seven-month-old 3xTg-AD mice were randomly segregated into three treatment groups: Tg-Vehicle, 1 mg/kg, and 2.5 mg/kg PRO-Br. PRO-Br was administered orally for 8 months (n = 8). The bodyweight of mice from all the groups was recorded once every week.
# (§2) Brain tissues from experimental mice were carefully isolated, washed with 1X PBS, and fixed with 4% paraformaldehyde. Post-fixation for 48 h, brain tissues were transferred to 30% sucrose solution for cryopreservation. Tissue sections (30 μm) were obtained using a cryotome, maintained at a constant -30°C. Permeabilization was performed with 0.4% triton-X-100 for 10 min. For tau immunofluorescence, PHF1 primary antibody was added, and sections were kept overnight at four°C. The following day, an appropriate secondary antibody was added at RT for 1.5 h. DAPI was used as a nuclear stain for 5 min. For DAB staining, AT8 primary antibody was added to the sections overnight. The next day, an appropriate secondary antibody was added for 1.5 h. Staining was performed by employing a Vectastain-ELITE ABC-HRP kit according to the manufacturer’s procedure. The stained sections were carefully arranged on glass slides and mounted with an appropriate mounting medium under a coverslip. Images of cortical/hippocampal regions were taken with an Eclipse 80i fluorescence microscope (Nikon Instruments Inc.). The threshold was adjusted to remove the background staining. The captured images were quantified using ImageJ (NIH) software.
# Brain tissues of 3xTg-AD and P301S mice were separated, sagittally, into equal halves. One-half was lysed with tissue lysis buffer augmented with phosphatase and protease inhibitor cocktail tablets, while the other half was used for immunohistochemical analysis. Brain tissues were homogenized on ice using an Ultra Turrax tissue homogenizer. Brain tissue homogenate was subjected to sarkosyl differential centrifugation with 1% sarkosyl to separate the non-pathogenic soluble and pathogenic insoluble tau fractions. Protein lysates were evaluated for changes in levels of phospho epitopes of tau (AT8, CP13, PHF-1, MC-1, and ALZ50), and for total htau (HT7) using Western blot.
# (§3) After PRO-Br treatment, cells were solubilised using cold RIPA lysis buffer (9803, Life Technologies), containing protease and phosphatase inhibitor tablets. Cells were sonicated and centrifuged at 14000 rpm for 15 min. Total protein concentration was determined by BCA protein assay, and the samples were separated on SDS-PAGE and transferred to PVDF membranes. The membranes were blocked, washed, and incubated with primary antibodies (Table 1), and incubated at 4°C, overnight. The membranes were further incubated with the required dilutions of secondary antibody for 1 h, at RT. The chemiluminescent signals were captured using x-ray film in a darkroom, with an appropriate chemiluminescent substrate kit (ThermoFisher Scientific, United States). Films were scanned, and the relative intensities of the signals were analyzed using ImageJ software.
# 3xTg-AD mice [2] = experiment: Morris water maze test; type: in vivo; details: oral, 1 and 2.5 mg/kg, 8 months
# Experimental: as §1
# To determine the memory functions of experimental mice, the Morris water maze test was performed according to the procedure described previously ([Iyaswamy et al., 2020]). Mice training preliminary to the probe trail was performed in two phases. The first phase, known as the visible-platform training, comprised four trials, for 1 day. In each trial, a platform was placed in the tank, 1 cm below the surface of the (clear) water. The mouse was introduced, and the time required for the mouse to find the platform was recorded. The position of the platform was changed for every trial. […] The distance travelled (cm) to reach the platform in the target quadrant was observed and recorded by a video tracking method (Ethovision, Noldus Information Technology, Version 3).
# P301S mice = experiment: Brain immunoblotting (sarkosyl tau fractions, chaperones, LAMP2A) and IHC; type: in vivo
# Experimental: Female homozygous P301S mice bearing the transgene for MAPT (P301S), were generous gifts from Michael Goedert. P301S-tau mice (1.5-month-old, n = 8) were administered with PRO-Br daily for 2.5 months. The mice models employed in the study were maintained under 12 h light-dark cycles and were provided ad libitum access to chow and water.
# as §2, with “The stained sections were carefully arranged on glass slides and mounted with an appropriate mounting medium under a coverslip.” left out, “The threshold was adjusted to remove the background staining.” left out
# Brain tissues of 3xTg-AD and P301S mice were separated, sagittally, into equal halves. […] Protein lysates were evaluated for changes in levels of phospho epitopes of tau (AT8, CP13, PHF-1, MC-1, and ALZ50), and for total htau (HT7) using Western blot.
# After PRO-Br treatment, cells were solubilised using cold RIPA lysis buffer (9803, Life Technologies), containing protease and phosphatase inhibitor tablets. […] Total protein concentration was determined by BCA protein assay, and the samples were separated on SDS-PAGE and transferred to PVDF membranes. […] Films were scanned, and the relative intensities of the signals were analyzed using ImageJ software.
# 3xTg-AD mice [3] = experiment: Golgi staining of dendritic spines; type: in vivo; details: oral, 8 months
# Experimental: as §1
# FD Rapid Golgi Stain Kit was employed to determine the dendritic spine density in the 3xTg-AD mice brains and was performed according to procedure described previously ([Iyaswamy et al., 2022]). Briefly, mice were perfused using 4% PFA, and the brains were dissected carefully to avoid damage. Next, the brain samples were frozen by dipping in isopentane solution (on dry ice). The frozen brains were sectioned at 150 μm thickness using a Shandon Cryotome SME Cryostat (Ramsey, MN, United States). The tissue slices were carefully mounted onto glass slides and stained with the kit reagents in accordance with the manufacturer’s procedure. The dendritic images were acquired by Leica confocal microscope. […]
# N2A cells = experiment: LAMP2A / HSC70 expression; type: cell-based, mouse; details: compared to Trehalose (positive control)
# Experimental: SHSY5Y cells stably-expressing mutant tau (SHSYP301L) were cultured in DMEM/F12 + 15% FBS, 3 μg/ml Blasticidin S HCl, and 1X PSN. N2A mouse neuroblastoma and mouse hippocampal neuronal (HT22) cells were cultured in DMEM+10% FBS, and 1X PSN. Sterile complete medium containing PRO-Br was added to the cells, and they were then incubated for 24 h at an optimum temperature of 37°C in a sterile 5% CO2 incubator.
# as §3
compound,measurement,setting,value
"CN1CCc2cc3c(cc2C(=O)Cc2c(Br)cc4c(c2C1)OCO4)OCO3 [PRO-Br, bromo-protopine]",AT8-positive cell count in the cortico-hippocampal regions,"3xTg-AD mice [1]; 1.0 and 2.5 mg/kg, IHC",significantly reduced AT8-positive cell count
same,acetylation of HSP90 (K294),"3xTg-AD mice [1]; brain, immunoblotting",dose-dependently enhanced the acetylation of HSP90 (K294)
same,expression of sarkosyl-insoluble phospho-tau variants,"3xTg-AD mice [1]; brain, immunoblotting",specifically reduced the expression of sarkosyl-insoluble phospho-tau variants in a dose-dependent manner
same,heat shock proteins HSP70 and HSC70,"3xTg-AD mice [1]; brain, immunoblotting",dose-dependently increased the heat shock proteins HSP70 and HSC70
same,protein expression of LAMP2A,"3xTg-AD mice [1]; brain, immunoblotting",dose-dependently increased
same,learning and memory impairment (Morris water maze),3xTg-AD mice [2],significantly reversed the learning and memory impairment
same,AT8- and PHF1-positive cell counts,P301S mice; IHC,significantly reduced
same,expression of sarkosyl-insoluble phospho-tau variants,"P301S mice; brain, immunoblotting",specifically reduced the expression of sarkosyl-insoluble phospho-tau variants in a dose-dependent manner
same,protein expression of LAMP2A,"P301S mice; brain, immunoblotting",dose-dependently increased
same,"dendritic spine structures (thin, stubby and mushroom-like) in the hippocampus",3xTg-AD mice [3],significantly enhanced the dendritic spine structures
same,expression of LAMP2A and HSC70,N2A cells,increased expression of LAMP2A and HSC70
